Source: the supplement of paper PMC10307832

Assays:
Test in all cases: relative viability (nuclei count vs DMSO), 5 days (fraction); higher = more cells survive
[1] = compound: CC1=CC(=CC=C1)NC2=NC(=CS2)C3=CC=NC=C3 + Cc1cc(Nc2cc(N3CCN(C)CC3)nc(Sc3ccc(NC(=O)C4CC4)cc3)n2)n[nH]1 [Tozasertib] (partner 0.1 µM)
Procedure, shortened: (§1)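 Nuclei were stained with Hoechst during a one-step fixation (final 0.05% Triton X-100, 1% formaldehyde, 1 ug/ml Hoechst) carried out 5 days after dosing, then counted on 4× images. The cells, lung cancer lines in 1536-well plates, had been dosed by pin tool the day after seeding with one drug alone or a fixed anchor-drug dose plus five library-drug doses (not always all listed) in √10 steps. Relative viability is the nuclei count in treated wells divided by that in vehicle wells, and each value is the median of duplicate plates.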

[2] = compound: Cc1ccc(NC(=O)c2ccc(CN3CCN(C)CC3)cc2)cc1Nc1nc(-c2cccnc2)cs1 [Masitinib] + CS(=O)(=O)CCNCc1ccc(-c2ccc3ncnc(Nc4ccc(OCc5cccc(F)c5)c(Cl)c4)c3c2)o1 [Lapatinib] (partner 2 µM)
Procedure, shortened: as §1

[3] = compound: Cc1ccc(NC(=O)c2ccc(CN3CCN(C)CC3)cc2)cc1Nc1nc(-c2cccnc2)cs1 [Masitinib] + O=C(c1cc(Cc2n[nH]c(=O)c3ccccc23)ccc1F)N1CCN(C(=O)C2CC2)CC1 [Olaparib] (partner 8 µM)
Procedure, shortened: as §1

[4] = compound: Cc1ccc(NC(=O)c2ccc(CN3CCN(C)CC3)cc2)cc1Nc1nc(-c2cccnc2)cs1 [Masitinib] + CC(=O)c1c(C)c2cnc(Nc3ccc(N4CCNCC4)cn3)nc2n(C2CCCC2)c1=O [Palbociclib] (partner 0.5 µM)
Procedure, shortened: as §1

UMC-11
relative viability ([1]; first compound 0.08 µM): 0.219 | relative viability ([1]; first compound 0.253 µM): 0.206 | relative viability ([1]; first compound 0.8 µM): 0.193 | relative viability ([1]; first compound 2.53 µM): 0.185 | relative viability ([1]; first compound 8 µM): 0.224 | relative viability ([2]; first compound 0.01 µM): 0.82 | relative viability ([2]; first compound 0.03162 µM): 0.914 | relative viability ([2]; first compound 0.1 µM): 0.979 | relative viability ([2]; first compound 0.3162 µM): 1.06 | relative viability ([2]; first compound 1 µM): 1.05 | relative viability ([3]; first compound 0.01 µM): 0.354 | relative viability ([3]; first compound 0.03162 µM): 0.371 | relative viability ([3]; first compound 0.1 µM): 0.372 | relative viability ([3]; first compound 0.3162 µM): 0.376 | relative viability ([3]; first compound 1 µM): 0.398 | relative viability ([4]; first compound 0.01 µM): 0.323 | relative viability ([4]; first compound 0.03162 µM): 0.384 | relative viability ([4]; first compound 0.1 µM): 0.319 | relative viability ([4]; first compound 0.3162 µM): 0.351 | relative viability ([4]; first compound 1 µM): 0.304
